16 molecules from ChEMBL document CHEMBL4837215, “Application of cation-π interactions in enzyme-substrate binding: Design, synthesis, biological evaluation, and molecular dynamics insights of novel hydrophilic substrates for NQO1” (Eur J Med Chem, 2021) can be followed below.

Values after ≈ are worked out from the molar mass of the structure shown. Active and inactive are the calls of the source. No cut-off for these calls is given here.

The subject of data set [1] is L02. Briefly: Cytotoxicity against NQO1-deficient human L02 cells assessed as reduction in cell viability incubated for 72 hrs by MTT assay. The format is cell-based. The note with it: L02, 72 h.
Data set [2] in a line: Selectivity index, ratio of IC50 for NQO1-deficient human L02 cells to IC50 for human A549 cells overexpressing NQO1 incubated for 72 hrs by MTT assay.
Data set [3] relates to A549. Put plainly: Cytotoxicity against human A549 cells overexpressing NQO1 assessed as reduction in cell viability incubated for 72 hrs by MTT assay. The format is functional, cell-based. The following applies: A549, 72 h. In general terms: Formazan colour is commonly taken as a measure of viable cells.
The target in data set [4] is NAD(P)H dehydrogenase [quinone] 1 (Homo sapiens) (UniProt P15559). Put plainly: Substrate activity at recombinant human NQO1 assessed as enzymatic reduction rate at 10 uM.
Data set [5] relates to A549. Briefly: Cytotoxicity against NQO1-deficient human A549 cells assessed as reduction in cell viability pretreated with DIC followed by compound addition and incubated for 72 hrs by MTT assay. The format is functional, cell-based.
Data set [6] can be described thus: Selectivity index, ratio of IC50 for NQO1-deficient human NCI-H596 cells to IC50 for human A549 cells overexpressing NQO1 incubated for 72 hrs by MTT assay.
The subject of data set [7] is A549/TR. Put plainly: Cytotoxicity against human A549/Taxol cells overexpressing NQO1 assessed as reduction in cell viability incubated for 72 hrs by MTT assay. The format is functional, cell-based.
A short description of data set [8]: Selectivity index, ratio of IC50 for human A549 cells overexpressing NQO1 to IC50 for NQO1-deficient human A549 cells assessed as reduction in cell viability pretreated with DIC followed by compound addition and measured after 72 hrs by MTT assay.
Data set [9] deals with NCI-H596. Briefly: Cytotoxicity against NQO1-deficient human NCI-H596 cells assessed as reduction in cell viability incubated for 72 hrs by MTT assay. The following applies: NCI-H596, 72 h. The format is functional, cell-based.
The subject of data set [10] is A549. Put plainly: Cytotoxicity against human DPP-resistant A549 cells overexpressing NQO1 assessed as reduction in cell viability incubated for 72 hrs by MTT assay. The format is functional, cell-based. The note with it: A549, 72 h.
Data set [11] can be described thus: Intrinsic solubility of the compound after 8 hrs by potentiometric titration method. The format is physicochemical. The note with it: read-out: Intrinsic_solubility.
Data set [12] in a line: Solubility of the compound in pH 3 after 8 hrs by potentiometric titration method. The format is physicochemical. The following applies: buffer.
A short description of data set [13]: Lipophilicity, logD of the compound at pH 7.4 by potentiometric titration method. The format is physicochemical. The note with it: buffer.
Data set [14] deals with A549. Briefly: Induction of apoptosis in human A549 cells assessed as condensed nuclei at 1 to 10 uM measured after 24 hrs by DAPI based confocal laser scanning microscopic method. The format is functional, cell-based. The note with it: dose 1-10 µM.
For data set [15], the system named is A549. Briefly: Induction of ROS generation in human A549 cells at 1 to 10 uM incubated for 3 hrs by DCFH-DA staining based confocal laser scanning microscopic method. The following applies: dose 1-10 µM. The format is functional, cell-based.
Data set [16] addresses NAD(P)H dehydrogenase [quinone] 1 (Homo sapiens) (UniProt P15559). Briefly: Induction of recombinant human NQO1-mediated ROS generation assessed as rate of reduction of cytochrome C at 25 uM in presence of DIC by spectrophotometric assay.
Data set [17] deals with A549. Put plainly: Induction of superoxide anion generation in human A549 cells at 10 uM pretreated with DIC or NAC for 1 hr followed by compound addition and measured after 3 hrs by […] staining based confocal laser scanning microscopic method. The format is functional, cell-based.
Data set [18] has as its target NAD(P)H dehydrogenase [quinone] 1 (Homo sapiens) (UniProt P15559). Put plainly: Induction of recombinant human NQO1-mediated ROS generation assessed as rate of reduction of cytochrome C at 25 uM by spectrophotometric assay. The note with it: filed as activator.
The test system of data set [19] is A549. Briefly: Induction of superoxide anion generation in human A549 cells at 1 to 10 uM incubated for 3 hrs by […] staining based confocal laser scanning microscopic method. The format is functional, cell-based. The note with it: dose 1-10 µM.
The subject of data set [20] is A549. Put plainly: Induction of ROS generation in human A549 cells at 10 uM pretreated with DIC or NAC for 1 hr followed by compound addition and measured after 3 hrs by DCFH-DA staining based confocal laser scanning microscopic method. The format is functional, cell-based.

Chain of NAD(P)H dehydrogenase [quinone] 1 (Homo sapiens) (P15559 whole entry): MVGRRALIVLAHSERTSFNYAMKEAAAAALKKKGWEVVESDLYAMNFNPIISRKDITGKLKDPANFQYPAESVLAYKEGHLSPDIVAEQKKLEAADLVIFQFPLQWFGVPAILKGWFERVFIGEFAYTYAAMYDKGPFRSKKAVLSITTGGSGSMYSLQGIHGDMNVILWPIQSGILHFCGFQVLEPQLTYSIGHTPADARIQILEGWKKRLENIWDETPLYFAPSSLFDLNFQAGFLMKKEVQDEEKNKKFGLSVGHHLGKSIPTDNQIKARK

With `Cc1cc2c(cc1C)-c1oc(CN3CCN(C4CC4)CC3)c(C)c1C(=O)C2=O`, the IC50 (as a rule, the point on the concentration scale where inhibition reaches its midpoint) was determined as 34.6 µM in [1] and 3.9 µM in data set [3]. For the same molecule, the “Ratio IC50” value in data set [2] was found to be 8.86. The Activity in [4] is 1100 µmol/min.
The matching figures for `Cc1cc2c(cc1C)-c1occ(C)c1C(=O)C2=O`: 31.4 µM, 7.4 µM, 4.24 and 690 µmol/min.
The matching figures for `Cc1cc2c(cc1C)-c1oc(CN3CCN(S(C)(=O)=O)CC3)c(C)c1C(=O)C2=O`: 31.2 µM, 7.2 µM, 4.33 and 871 µmol/min.
For `CC1(C)CCC2=C(O1)c1ccccc1C(=O)C2=O` [LAPACHONE], the IC50 in data set [5] was found to be 29 µM; in data set [1], 9.6 µM; in data set [7], 11 µM; in data set [9], 27 µM; in data set [10], 16 µM. Besides, the entries for the “Ratio IC50” value in data set [6], in data set [2] and in data set [8] were 4.7, 1.68 and 5.1, respectively.
Take `Cc1cc2c(cc1C)-c1oc(CN3CCOCC3)c(C)c1C(=O)C2=O`: the 50% inhibitory concentration (IC50) in data set [1] was found to be 28.5 µM; in [3] it was 4.9 µM. Moreover, in [2], the “Ratio IC50” value is 5.81. Further, the Activity in data set [4] turned out to be 996 µmol/min.
Take `Cc1cc2c(cc1C)-c1oc(CN3CCC(N4CCN(C)CC4)CC3)c(C)c1C(=O)C2=O`: the IC50 turned out to be 29.8 µM in data set [1] and 6.8 µM in data set [3]. The “Ratio IC50” value in [2] is 4.38. Further, the Activity in data set [4] amounted to 904 µmol/min.
As to `Cc1cc2c(cc1C)-c1oc(CN3CCN4CCCCC4C3)c(C)c1C(=O)C2=O` (stereo not given), the IC50 in data set [1] amounted to 31.6 µM; in data set [3] it was 4.5 µM. For the same molecule, the “Ratio IC50” value in [2] was found to be 7.02. In addition, the Activity in [4] was determined as 1030 µmol/min.
For `Cc1cc2c(cc1C)-c1oc(CN3CCN(CCO)CC3)c(C)c1C(=O)C2=O`, the results for the solubility at 8 h in data set [11] and in [12] were 61 µg/mL (≈ 159 µM) and above 1000 µg/mL, respectively. For the same molecule, the results for the IC50 in data set [1] and in data set [3] were 35.8 µM and 3.1 µM, respectively. The “Ratio IC50” value in [2] was found to be 11.56. Moreover, the pH-dependent lipophilicity (logD) (in general, lipophilicity at a set pH, counting ionised and neutral species) in data set [13] was determined as 2.01. Besides, the Activity in data set [4] is 1160 µmol/min.
`Cc1cc2c(cc1C)-c1oc(CN3CCC(N4CCOCC4)CC3)c(C)c1C(=O)C2=O`: the IC50 was 28.9 µM in data set [1] and 5.6 µM in data set [3]. Further, the “Ratio IC50” value in data set [2] is reported as 5.16. In data set [4], the Activity turned out to be 951 µmol/min.
Consider `CCN1CCN(Cc2oc3c(c2C)C(=O)C(=O)c2cc(C)c(C)cc2-3)CC1`, for which the solubility at 8 h was 82 µg/mL (≈ 224 µM) in data set [11] and above 1000 µg/mL in [12]. For the same molecule, the IC50 in data set [1] is 35.8 µM; in data set [3], 2.9 µM. In [2], the “Ratio IC50” value was determined as 12.36. The same molecule displayed a logD in [13] of 1.99. In addition, in data set [4], the Activity was 1200 µmol/min.
On to `Cc1cc2c(cc1C)-c1oc(CN(C)C)c(C)c1C(=O)C2=O`, for which the IC50 in [1] came out at 46.9 µM; in data set [3] it was 15 µM. The “Ratio IC50” value in data set [2] came to 3.12. Moreover, the Activity in [4] turned out to be 704 µmol/min.
On to `Cc1cc2c(cc1C)-c1oc(CN3CCC(N4CCCC4)CC3)c(C)c1C(=O)C2=O`, for which the values for the IC50 in data set [1] and in [3] were 31.2 µM and 8.7 µM, respectively. The “Ratio IC50” value in [2] came out at 3.58. Further, the Activity in data set [4] came out at 848 µmol/min.
The matching figures for `Cc1cc2c(cc1C)-c1oc(CN3CCN4CCCC4C3)c(C)c1C(=O)C2=O` (stereo not given): 32.9 µM, 4.3 µM, 7.66 and 1070 µmol/min.
As for `Cc1cc2c(cc1C)-c1oc(CN3CCN(C)CC3)c(C)c1C(=O)C2=O`, the IC50 in [5] came out at 30 µM; in data set [1] it was 36.2 µM; in data set [3], 2.4 µM; in data set [7] it was 4.5 µM; in [9], 27 µM; in data set [10], 4.8 µM. Further, the outcome in [14], in data set [15], in [18] and in [19] was Active. Also, the solubility at 8 h in data set [11] is 110 µg/mL (≈ 312 µM); in [12] it was above 1000 µg/mL. For the same molecule, the “Ratio IC50” value in data set [6] is recorded as 11; in data set [2], 15.06; in data set [8], above 12.5. Besides, the result in [16], in [17] and in data set [20] was inactive. The molecule further registered a logD in data set [13] of 1.97. Besides, in data set [4], the Activity was determined as 1260 µmol/min.
For `Cc1cc2c(cc1C)-c1oc(CN3CCC(N4CCCCC4)CC3)c(C)c1C(=O)C2=O`, the results for the IC50 in data set [1] and in data set [3] were 40.5 µM and 9.1 µM, respectively. Also, in data set [2], the “Ratio IC50” value worked out at 4.45. Also, the Activity in data set [4] is 795 µmol/min.
Taken in the same sequence, the figures for `Cc1cc2c(cc1C)-c1oc(CN3CCCCC3)c(C)c1C(=O)C2=O` were 45.5 µM, 12 µM, 3.79 and 768 µmol/min.
